Test results taken from article PMC9186361 (Drug Delivery, 2022).
Values after ≈ are worked out from the molar mass of the structure shown.

How the values were obtained:
PDI = test system: PDI; design: method as in Jasuja et al., 2012; conditions: insulin-based turbidimetric assay; 95% CI 1.1–10.7 μM; ref Jasuja et al., 2012; read-out: IC50 of PDI inhibition; cited from earlier work
thrombin = target: T1, thrombin (Homo sapiens, UniProt P00734); assay: Hydrolysis of chromogenic substrate S2238 by thrombin in vitro; assay type: biochemical; conditions: rutin up to 50 μM, 0.4 U/mL thrombin
T1 construct: Human thrombin was purchased from Hematologic Technologies Inc. (Essex Junction, VT); purchased Hematologic Technologies Inc. (Essex Junction, VT)
Description: We tested the antithrombotic effects of NanoR and NaR ex vivo and in vivo. Thrombin plays a pivotal role in the coagulation process, and its amount reflects the hemostatic function (Mann, [2003]). […] In our clot formation study, the treatment with NanoR and NaR led to delayed clotting initiation time and a limited extent of clot formation. Again, NanoR exerted a stronger anticoagulatory effect than NaR, and excess exogenous PDI restored the coagulation function of pretreated plasma in clot formation assay. […] The link between obstructive atherosclerosis in the epicardial coronary arteries and myocardial ischemia is well established. In the past several decades, however, a number of studies have discovered that coronary microvascular dysfunction and remodeling contribute to myocardial ischemia in patients with normal coronary arteries. […] Recently, a novel two-stage mechanism for the action of FeCl3 in thrombus formation has been proposed. The first stage is based on colloidal chemistry principles whereby cells and plasma proteins adhere and aggregate due to the binding of negatively charged proteins to positively charged iron species. The extent of this stage is dependent on effective FeCl3 concentration, which is governed by intraluminal mass transport. […] (A) The hydrolysis of chromogenic substrate S2238 by different concentrations of thrombin was determined.

[1] = Saturation solubility of rutin by shake flask method; assay type: physicochemical; conditions: thermodynamic from solid

## C[C@@H]1O[C@@H](OC[C@H]2O[C@@H](Oc3c(-c4ccc(O)c(O)c4)oc4cc(O)cc(O)c4c3=O)[C@H](O)[C@@H](O)[C@@H]2O)[C@H](O)[C@H](O)[C@H]1O [rutin, quercetin-3-O-rutinoside]
PDI
  IC50: 6.1 µM
thrombin
  effect on thrombin activity (hydrolysis of S2238): did not inhibit thrombin proteolytic activity
thrombin; listed as native rutin
  effect on thrombin activity (hydrolysis of S2238): did not affect the activity of thrombin
[1]; organic solvent or mixture, in 1,2-propylene glycol, 37 °C, 72 h
  solubility at 72 h: 32 ± 2 mg/mL (≈ 52.4 mM)
[1]; self-emulsifying formulation F2, 37 °C, in formulation F2
  solubility at 72 h: 24.3 ± 3.2 mg/mL (≈ 39.8 mM)
[1]; self-emulsifying formulation F5, 37 °C, in formulation F5
  solubility at 72 h: 19.2 ± 2.8 mg/mL (≈ 31.4 mM)
[1]; self-emulsifying formulation F7, 37 °C, in formulation F7
  solubility at 72 h: 16.2 ± 3.7 mg/mL (≈ 26.5 mM)
[1]; in Labrasol, 37 °C, 72 h
  solubility at 72 h: 5.2 ± 0.18 mg/mL (≈ 8.52 mM)
